From patent US20090304692A1, “TRIAZINE COMPOUNDS AS PI3 KINASE AND MTOR INHIBITORS” (Wyeth, priority 2008, published 2009)
Read-outs that look alike come from different tables or passages of the source.

Key:
Human mTOR (FLAG-TOR) = Human mTOR (FLAG-TOR) (Homo sapiens, UniProt P42345); test: mTOR kinase assay (DELFIA format, purified enzyme); format: biochemical; details: read-out: IC50 mTOR
PI3K-γ = PI3K-γ (Homo sapiens, UniProt P48736); test: PI3K-gamma fluorescence polarization assay; details: read-out: IC50 PI3Kγ
[1] = test system: human prostate PC3-mm2 tumor cell line; test: In vitro cell culture growth assay (MTS), PC3-mm2; format: cell-based; details: Homo sapiens, PC3MM2, 72 h, three days after drug treatment, read-out: IC50 PC3-mm2
[2] = test system: human breast MDA-MB-361 tumor cell line; test: In vitro cell culture growth assay (MTS), MDA-MB-361; format: cell-based; details: Homo sapiens, three days after drug treatment, read-out: IC50 MDA-MB-361
PI3K-α = PI3K-α (Homo sapiens, UniProt P42336); test: PI3K-alpha fluorescence polarization assay; details: read-out: IC50 PI3Kα
[3] = MTS cell growth assay, PC3-mm2 cells
[4] = MDA-MB-361, 72 h, MTS cell growth assay
[5] = MDA-MB-361, 72 h, MDA-MB-361 cells, MTS
[6] = MDA-MB-361, 72 h, MTS cell growth assay, MDA-MB-361 cells
[7] = 72 h, MTS cell growth assay, MDA-MB-361 cells

PI3K-γ, sequence (P48736 whole entry, species assumed): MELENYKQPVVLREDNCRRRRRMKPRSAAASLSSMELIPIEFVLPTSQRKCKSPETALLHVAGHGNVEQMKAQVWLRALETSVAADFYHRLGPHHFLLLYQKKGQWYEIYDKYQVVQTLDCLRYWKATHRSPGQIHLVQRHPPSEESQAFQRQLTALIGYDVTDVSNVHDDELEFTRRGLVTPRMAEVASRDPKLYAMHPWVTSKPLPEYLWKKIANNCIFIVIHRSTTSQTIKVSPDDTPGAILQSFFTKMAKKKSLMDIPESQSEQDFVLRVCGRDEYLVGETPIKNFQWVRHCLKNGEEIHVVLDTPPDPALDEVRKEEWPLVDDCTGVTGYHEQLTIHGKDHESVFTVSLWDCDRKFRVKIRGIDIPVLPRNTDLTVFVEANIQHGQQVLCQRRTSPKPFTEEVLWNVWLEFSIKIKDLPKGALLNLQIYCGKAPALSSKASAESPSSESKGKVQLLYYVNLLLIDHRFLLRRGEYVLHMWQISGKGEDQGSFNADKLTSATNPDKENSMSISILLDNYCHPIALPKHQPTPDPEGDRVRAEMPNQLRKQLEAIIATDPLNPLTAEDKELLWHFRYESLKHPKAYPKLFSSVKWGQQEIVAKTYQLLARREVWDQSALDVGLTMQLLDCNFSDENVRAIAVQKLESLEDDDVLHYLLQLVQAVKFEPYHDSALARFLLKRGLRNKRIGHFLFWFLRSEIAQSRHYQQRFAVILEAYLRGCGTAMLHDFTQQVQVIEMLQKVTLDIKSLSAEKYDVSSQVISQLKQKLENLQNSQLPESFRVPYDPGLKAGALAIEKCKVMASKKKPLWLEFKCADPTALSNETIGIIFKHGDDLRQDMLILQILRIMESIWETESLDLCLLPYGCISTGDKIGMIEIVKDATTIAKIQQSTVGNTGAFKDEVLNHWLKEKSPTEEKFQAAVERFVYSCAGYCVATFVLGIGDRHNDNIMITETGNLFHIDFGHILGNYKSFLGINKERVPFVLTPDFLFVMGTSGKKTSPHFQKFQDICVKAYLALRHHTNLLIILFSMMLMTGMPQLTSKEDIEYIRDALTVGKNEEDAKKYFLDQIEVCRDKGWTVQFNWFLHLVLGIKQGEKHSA
PI3K-α, sequence (P42336 whole entry, species assumed): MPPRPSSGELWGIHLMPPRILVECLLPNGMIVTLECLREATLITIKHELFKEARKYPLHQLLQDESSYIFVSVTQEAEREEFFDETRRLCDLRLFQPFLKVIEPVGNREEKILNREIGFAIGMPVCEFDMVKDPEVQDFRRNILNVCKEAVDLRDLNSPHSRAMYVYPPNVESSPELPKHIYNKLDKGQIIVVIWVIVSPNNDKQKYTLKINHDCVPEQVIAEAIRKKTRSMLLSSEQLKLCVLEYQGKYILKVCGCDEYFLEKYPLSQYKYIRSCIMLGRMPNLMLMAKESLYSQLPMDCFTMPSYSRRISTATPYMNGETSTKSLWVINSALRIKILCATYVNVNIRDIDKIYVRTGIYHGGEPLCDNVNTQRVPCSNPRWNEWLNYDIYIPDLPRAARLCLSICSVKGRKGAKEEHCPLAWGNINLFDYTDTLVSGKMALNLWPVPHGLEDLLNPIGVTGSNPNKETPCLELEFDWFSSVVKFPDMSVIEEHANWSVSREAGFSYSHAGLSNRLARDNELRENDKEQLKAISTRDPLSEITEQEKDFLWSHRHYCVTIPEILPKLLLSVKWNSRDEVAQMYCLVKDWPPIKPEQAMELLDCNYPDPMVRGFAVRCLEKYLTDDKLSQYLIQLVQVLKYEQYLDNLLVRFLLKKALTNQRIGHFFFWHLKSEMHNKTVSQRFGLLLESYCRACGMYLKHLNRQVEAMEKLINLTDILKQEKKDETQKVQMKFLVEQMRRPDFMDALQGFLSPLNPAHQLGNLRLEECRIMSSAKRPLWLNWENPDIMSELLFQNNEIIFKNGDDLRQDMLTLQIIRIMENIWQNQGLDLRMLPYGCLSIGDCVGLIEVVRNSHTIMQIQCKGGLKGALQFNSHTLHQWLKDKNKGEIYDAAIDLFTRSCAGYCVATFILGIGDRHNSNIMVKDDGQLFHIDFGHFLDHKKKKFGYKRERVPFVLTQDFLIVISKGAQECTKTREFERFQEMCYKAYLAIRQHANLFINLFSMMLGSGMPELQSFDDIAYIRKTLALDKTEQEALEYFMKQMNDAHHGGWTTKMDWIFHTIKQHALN
PI3K-α, sequence (P27986 whole entry partner, species assumed): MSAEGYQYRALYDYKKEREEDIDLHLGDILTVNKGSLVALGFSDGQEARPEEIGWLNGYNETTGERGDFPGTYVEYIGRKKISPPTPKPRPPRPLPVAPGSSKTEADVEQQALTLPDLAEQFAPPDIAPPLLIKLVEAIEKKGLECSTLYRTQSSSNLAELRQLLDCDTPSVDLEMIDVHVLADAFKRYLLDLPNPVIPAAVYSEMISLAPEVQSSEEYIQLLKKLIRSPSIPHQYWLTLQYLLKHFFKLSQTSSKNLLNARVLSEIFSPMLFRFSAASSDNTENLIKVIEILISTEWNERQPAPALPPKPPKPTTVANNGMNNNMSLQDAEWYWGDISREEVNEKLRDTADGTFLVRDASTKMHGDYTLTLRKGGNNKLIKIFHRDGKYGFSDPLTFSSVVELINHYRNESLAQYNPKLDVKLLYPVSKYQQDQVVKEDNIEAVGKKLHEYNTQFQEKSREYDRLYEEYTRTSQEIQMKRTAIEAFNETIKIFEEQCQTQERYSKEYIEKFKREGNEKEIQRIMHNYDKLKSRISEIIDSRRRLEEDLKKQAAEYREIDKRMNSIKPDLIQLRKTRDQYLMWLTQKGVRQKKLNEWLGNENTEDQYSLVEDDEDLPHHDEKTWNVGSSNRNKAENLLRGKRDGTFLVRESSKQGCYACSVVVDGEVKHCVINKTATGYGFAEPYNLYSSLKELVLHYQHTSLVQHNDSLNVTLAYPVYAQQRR
Human mTOR (FLAG-TOR), sequence (P42345 1360-2549 limits assumed): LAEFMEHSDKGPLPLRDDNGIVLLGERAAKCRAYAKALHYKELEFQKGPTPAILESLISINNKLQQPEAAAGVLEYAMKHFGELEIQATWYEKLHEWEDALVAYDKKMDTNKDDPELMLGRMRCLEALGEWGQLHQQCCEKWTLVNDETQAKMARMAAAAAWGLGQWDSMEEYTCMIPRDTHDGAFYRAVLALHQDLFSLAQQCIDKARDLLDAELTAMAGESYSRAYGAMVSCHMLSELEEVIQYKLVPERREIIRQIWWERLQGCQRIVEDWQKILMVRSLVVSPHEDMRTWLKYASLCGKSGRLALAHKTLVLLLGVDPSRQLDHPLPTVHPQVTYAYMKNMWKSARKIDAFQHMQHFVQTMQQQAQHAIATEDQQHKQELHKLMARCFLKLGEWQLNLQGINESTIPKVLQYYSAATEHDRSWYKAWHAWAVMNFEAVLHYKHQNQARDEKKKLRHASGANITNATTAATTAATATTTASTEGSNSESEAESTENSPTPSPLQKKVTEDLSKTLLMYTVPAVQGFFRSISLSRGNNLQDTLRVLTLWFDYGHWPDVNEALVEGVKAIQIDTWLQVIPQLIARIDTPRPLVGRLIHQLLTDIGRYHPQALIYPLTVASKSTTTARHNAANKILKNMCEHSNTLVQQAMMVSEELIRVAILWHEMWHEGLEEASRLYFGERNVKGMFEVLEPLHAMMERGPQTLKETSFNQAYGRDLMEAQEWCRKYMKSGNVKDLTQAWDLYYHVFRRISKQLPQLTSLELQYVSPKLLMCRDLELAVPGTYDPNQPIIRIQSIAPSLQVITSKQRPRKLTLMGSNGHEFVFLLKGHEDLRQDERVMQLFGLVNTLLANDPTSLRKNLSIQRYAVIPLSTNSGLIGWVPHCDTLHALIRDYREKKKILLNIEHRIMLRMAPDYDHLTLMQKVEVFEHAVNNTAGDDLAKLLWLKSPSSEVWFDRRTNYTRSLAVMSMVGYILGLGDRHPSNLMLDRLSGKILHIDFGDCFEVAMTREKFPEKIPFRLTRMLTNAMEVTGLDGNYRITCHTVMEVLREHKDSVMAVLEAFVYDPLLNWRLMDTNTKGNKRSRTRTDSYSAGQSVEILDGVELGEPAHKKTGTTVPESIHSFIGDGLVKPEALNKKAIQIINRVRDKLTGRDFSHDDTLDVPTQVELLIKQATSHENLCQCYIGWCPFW

Compound | IC50 (Human mTOR (FLAG-TOR)) [nM] | IC50 (PI3K-γ) [nM] | IC50 [1, 3] [nM] | IC50 ([1]; MTS cell growth assay) [nM] | IC50 (PI3K-α) [nM] | IC50 [2, 6] [nM] | other results
CN(C)c1ccc(NC(=O)Nc2ccc(-c3nc(N4CCOCC4)nc(N4CCC5(CC4)OCCO5)n3)cc2)cc1 [Example 133, 1-[4-(dimethylamino)phenyl]-3-{4-[4-(1,4-dioxa-8-azaspiro[4.5]dec-8-yl)-6-morpholin-4-yl-1,3,5-triazin-2-yl]phenyl}urea] | 43 | 8890 | 1950 | 1950 | 39 | – | IC50 (PI3K-γ; listed as 708): 8890 nM; IC50 [2, 4]: 795 nM; IC50 (PI3K-α; listed as 708): 39.5 nM
O=C(Nc1ccc(C(=O)N2CCNCC2)cc1)Nc1ccc(-c2nc(N3CCOCC3)nc(N3CC4CCC3CO4)n2)cc1 (stereo not drawn) [Example 814, 1-{4-[4-morpholin-4-yl-6-(2-oxa-5-azabicyclo[2.2.2]oct-5-yl)-1,3,5-triazin-2-yl]phenyl}-3-[4-(piperazin-1-ylcarbonyl)phenyl]urea] | 1.05 | 10 | – | – | 0.8 | – | IC50 ([1]; PC3-mm2 cells, MTS): 37 nM; IC50 [2, 5]: 4 nM
Cc1nc(-c2ccc(NC(=O)Nc3ccc(C(=O)N(C)CCN(C)C)cc3)cc2)nc(N2CCOCC2)n1 [Example 165, N-[2-(dimethylamino)ethyl]-N-methyl-4-({[4-(4-methyl-6-morpholin-4-yl-1,3,5-triazin-2-yl)phenyl]carbamoyl}amino)benzamide] | 28 | 101 | – | 333 | 9 | – | IC50 [2, 4]: 210 nM
CN(C)C1CCN(C(=O)Nc2ccc(NC(=O)Nc3ccc(-c4nc(N5CCOCC5)nc(N5CCOCC5)n4)cc3)cc2)CC1 [Example 499, 4-(dimethylamino)-N-[4-({[4-(4,6-dimorpholin-4-yl-1,3,5-triazin-2-yl)phenyl]carbamoyl}amino)phenyl]piperidine-1-carboxamide] | 2.2 | 4.5 | 31 | – | < 1.9 | 21 | –
COC(=O)c1ccc(NC(=O)Nc2ccc(-c3nc(N4CCCOCC4)nc(N4CCOCC4)n3)cc2)cc1 [Example 567, methyl 4-[({4-[4-morpholin-4-yl-6-(1,4-oxazepan-4-yl)-1,3,5-triazin-2-yl]phenyl}carbamoyl)amino]benzoate] | 2 | 90 | 130 | – | 14.5 | 106 | –
CN(C)C1CCN(C(=O)c2ccc(NC(=O)Nc3ccc(-c4nc(C5CCOCC5)nc(N5CCOCC5)n4)cc3)cc2)CC1 [Example 350, 1-(4-{[4-(dimethylamino)piperidin-1-yl]carbonyl}phenyl)-3-{4-[4-morpholin-4-yl-6-(tetrahydro-2H-pyran-4-yl)-1,3,5-triazin-2-yl]phenyl}urea] | 0.89 | 7 | 8.5 | 8.5 | 1 | < 3.08 | IC50 (PI3K-γ; listed as 478): 6 nM; IC50 (PI3K-γ; listed as 510): 6.3 nM; IC50 (PI3K-α; listed as 478): 1.1 nM
CN(C)CCN(C)C(=O)c1ccc(NC(=O)Nc2ccc(-c3nc(N4CCCC4)nc(N4CCOCC4)n3)cc2)cc1 [Example 604, N-[2-(dimethylamino)ethyl]-N-methyl-4-({[4-(4-morpholin-4-yl-6-pyrrolidin-1-yl-1,3,5-triazin-2-yl)phenyl]carbamoyl}amino)benzamide] | 10 | 55.5 | 73 | – | 3.5 | – | IC50 [2, 7]: 4 nM
CN(C)CCCc1nc(-c2ccc(NC(=O)Nc3ccncc3)cc2)nc(N2CCOCC2)n1 [Example 274, 1-(4-{4-[3-(dimethylamino)propyl]-6-morpholin-4-yl-1,3,5-triazin-2-yl}phenyl)-3-pyridin-4-ylurea] | 59 | 616 | 1490 | 1490 | 34 | – | IC50 (PI3K-γ; listed as 731): 413 nM; IC50 [2, 4]: 1000 nM; IC50 (PI3K-α; listed as 731): 33 nM
C[C@H]1COCCN1c1nc(-c2ccc(NC(=O)Nc3ccc(C(=O)N4CCN(C)CC4)cc3)cc2)nc(N2CCOCC2)n1 [Example 617, 1-(4-{4-[(3S)-3-methylmorpholin-4-yl]-6-morpholin-4-yl-1,3,5-triazin-2-yl}phenyl)-3-{4-[(4-methylpiperazin-1-yl)carbonyl]phenyl}urea] | 1 | 27 | 17 | – | 2.5 | 4 | –
CCN1CCN(C(=O)c2ccc(NC(=O)Nc3ccc(-c4nc(N5CCCC5)nc(N5CCOCC5)n4)cc3)cc2)CC1 [Example 606, 1-{4-[(4-ethylpiperazin-1-yl)carbonyl]phenyl}-3-[4-(4-morpholin-4-yl-6-pyrrolidin-1-yl-1,3,5-triazin-2-yl)phenyl]urea] | 26 | 87 | 173 | – | 12 | 28 | –
O=C(Nc1ccc(C(=O)N2CCC(N3CCCC3)CC2)cc1)Nc1ccc(-c2nc(N3CCOCC3)nc(N3C4CCC3COC4)n2)cc1 [Example 761, 1-{4-[4-morpholin-4-yl-6-(3-oxa-8-azabicyclo[3.2.1]oct-8-yl)-1,3,5-triazin-2-yl]phenyl}-3-{4-[(4-pyrrolidin-1-ylpiperidin-1-yl)carbonyl]phenyl}urea] | 0.12 | 19 | 4 | – | 2 | < 3 | –
CCN1CCN(C(=O)c2ccc(NC(=O)Nc3ccc(-c4nc(N5CCOCC5)nc(N5C6CCC5COC6)n4)cc3)cc2)CC1 [Example 803, 1-{4-[(4-ethylpiperazin-1-yl)carbonyl]phenyl}-3-{4-[4-morpholin-4-yl-6-(3-oxa-8-azabicyclo[3.2.1]oct-8-yl)-1,3,5-triazin-2-yl]phenyl}urea] | 0.19 | 29 | – | – | 3 | – | IC50 ([1]; PC3-mm2 cells, MTS): 6 nM; IC50 [2, 5]: 1 nM
O=C(Nc1ccc(-c2nc(N3CCOCC3)nc(N3CC4CCC(C3)O4)n2)cc1)Nc1cccnc1 [Example 47, 1-{4-[4-morpholin-4-yl-6-(8-oxa-3-azabicyclo[3.2.1]oct-3-yl)-1,3,5-triazin-2-yl]phenyl}-3-pyridin-3-ylurea] | 1.6 | 52 | – | 95 | 13 | – | IC50 [2, 4]: 116 nM
CC(C)c1nc(-c2ccc(NC(=O)Nc3ccc(-c4cncnc4)cc3)cc2)nc(N2CCOCC2)n1 [Example 487, 1-{4-[4-(1-methylethyl)-6-morpholin-4-yl-1,3,5-triazin-2-yl]phenyl}-3-(4-pyrimidin-5-ylphenyl)urea] | 1.8 | 27 | 339 | – | 32.3 | – | IC50 [2, 7]: 175 nM
O=C(Nc1ccncc1)Nc1ccc(-c2nc(N3CCCCC3)nc(N3CCOCC3)n2)cc1 [Example 592, 1-[4-(4-morpholin-4-yl-6-piperidin-1-yl-1,3,5-triazin-2-yl)phenyl]-3-pyridin-4-ylurea] | 9 | 122 | 718 | – | 25.5 | – | IC50 [2, 7]: 239 nM
CN(C)CCCNC(=O)c1ccc(NC(=O)Nc2ccc(-c3nc(N4CCCCC4)nc(N4CCOCC4)n3)cc2)cc1 [Example 610, N-[3-(dimethylamino)propyl]-4-({[4-(4-morpholin-4-yl-6-piperidin-1-yl-1,3,5-triazin-2-yl)phenyl]carbamoyl}amino)benzamide] | 5 | 50.5 | 297 | – | 3.5 | – | IC50 [2, 7]: 28 nM
CC(C)c1nc(-c2ccc(NC(=O)Nc3ccc(C(=O)N(C)CCN(C)C)cc3)cc2)nc(N2CCOCC2)n1 [Example 306, N-[2-(dimethylamino)ethyl]-N-methyl-4-[({4-[4-(1-methylethyl)-6-morpholin-4-yl-1,3,5-triazin-2-yl]phenyl}carbamoyl)amino]benzamide] | 2.1 | 19 | – | 30 | 1 | – | IC50 [2, 4]: 7 nM
O=C(Nc1ccc(C(=O)NCCN2CCCC2)cc1)Nc1ccc(-c2nc(C3CCOCC3)nc(N3CCOCC3)n2)cc1 [Example 513, 4-[({4-[4-morpholin-4-yl-6-(tetrahydro-2H-pyran-4-yl)-1,3,5-triazin-2-yl]phenyl}carbamoyl)amino]-N-(2-pyrrolidin-1-ylethyl)benzamide] | 0.12 | 12 | 13 | – | < 2.4 | – | IC50 [2, 7]: 2 nM
CC(C)N1CCN(C(=O)c2ccc(NC(=O)Nc3ccc(-c4nc(N5CCOCC5)nc(N5C6CCC5COC6)n4)cc3)cc2)CC1 [Example 754, 1-{4-[(4-isopropylpiperazin-1-yl)carbonyl]phenyl}-3-{4-[4-morpholin-4-yl-6-(3-oxa-8-azabicyclo[3.2.1]oct-8-yl)-1,3,5-triazin-2-yl]phenyl}urea] | 0.327 | 28 | 70.8 | – | 3 | 31.3 | –
